Data taken from article PMC5976863, “The Active Components of Fuzheng Huayu Formula and Their Potential Mechanism of Action in Inhibiting the Hepatic Stellate Cells Viability – A Network Pharmacology and Transcriptomics Approach” (Frontiers in Pharmacology, 2018).
Where two headings read alike, the source gives them in different places.

Biological target: T1, peroxisome proliferator activator receptor gamma (PPARG) (Homo sapiens, UniProt P37231)
T1 sequence (P37231 1-505): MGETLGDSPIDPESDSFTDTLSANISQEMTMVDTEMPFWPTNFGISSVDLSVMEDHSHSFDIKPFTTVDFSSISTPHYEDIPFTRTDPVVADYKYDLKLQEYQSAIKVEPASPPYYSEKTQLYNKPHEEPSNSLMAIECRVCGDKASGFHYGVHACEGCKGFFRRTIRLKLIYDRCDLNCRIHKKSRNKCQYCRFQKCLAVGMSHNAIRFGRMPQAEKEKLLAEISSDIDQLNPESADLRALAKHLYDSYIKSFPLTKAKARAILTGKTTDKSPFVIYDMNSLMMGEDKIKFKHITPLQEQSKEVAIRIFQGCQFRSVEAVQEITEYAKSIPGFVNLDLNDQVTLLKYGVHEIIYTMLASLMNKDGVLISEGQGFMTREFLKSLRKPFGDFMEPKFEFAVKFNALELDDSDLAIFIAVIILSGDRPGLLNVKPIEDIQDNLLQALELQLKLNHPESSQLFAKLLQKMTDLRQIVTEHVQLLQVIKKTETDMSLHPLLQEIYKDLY
Test: SPR (Biacore T200), PPARG immobilized on CM5 chip
Type: binding

SMILES	Kd [µM]	Kd (read-out: Kd) [µM]
CCCCC/C=C/C=C1/C(=O)C=C[C@@H]1C/C=C\CCCC(=O)O [15d-PGJ2, reference compound]	9.8	
O=c1c(O)c(-c2ccc(O)cc2)oc2cc(O)cc(O)c12 [Kaempferol]		51
O=C(/C=C/c1ccc(O)c(O)c1/C=C/c1ccc(O)c(O)c1)O[C@H](Cc1ccc(O)c(O)c1)C(=O)O [Salvianolic acid A]		3.5
COc1cc2c(c(OC)c1OC)-c1c(cc3c(c1OC)OCO3)CC(C)C(C)C2 (stereo not shown) [schisandrin B]		22
